# Reference: ChEMBL document CHEMBL1159088, “Design, synthesis and biological evaluation of simplified analogues of the RNA polymerase inhibitor etnangien” (Bioorg Med Chem Lett, 2010)
# Tests used:
# Staphylococcus aureus = test: Antibacterial activity against Staphylococcus aureus; type: functional
# [1] = Chemical stability after 48 hrs; type: physicochemical; settings: read-out: Stability
# [2] = test system: Corynebacterium glutamicum; test: Antibacterial activity against Corynebacterium glutamicum; type: functional
# Micrococcus luteus = test: Antibacterial activity against Micrococcus luteus; type: functional
# [3] = Chemical stability at pH >10; type: physicochemical
# Escherichia coli = test: Antibacterial activity against Escherichia coli; type: functional
# Saccharomyces cerevisiae = test: Antibacterial activity against Saccharomyces cerevisiae; type: functional
# [4] = Chemical stability at pH 7; type: physicochemical; settings: buffer
# [5] = Chemical stability at pH >3; type: physicochemical
# Mycolicibacterium phlei = test: Antibacterial activity against Mycobacterium phlei; type: functional
Compound,MIC (Staphylococcus aureus),remaining at 48 h [1],MIC [2],MIC (Micrococcus luteus),Stability [3],MIC (Escherichia coli),MIC (Saccharomyces cerevisiae),Stability [4],Stability [5],MIC (Mycolicibacterium phlei)
COC(=O)CC/C=C(\C)[C@@H](O)C/C=C/C=C/C=C/C=C/C=C/C(C)=C/[C@@H](O)[C@@H](C)[C@@H]1C[C@H](O)CCC[C@H](OC)C/C=C\C=C\C[C@H](C)[C@@H](O)[C@H](C)[C@@H](O)[C@H](C)[C@H](O)CC(=O)O1 [ETNANGIEN METHYL ESTER],2.5 µg/mL,< 5%,0.24 µg/mL,0.39 µg/mL,Unstable,> 20 µg/mL,> 40 µg/mL,Stable,Unstable,
CO[C@@H]1C/C=C\C=C\C[C@H](C)[C@@H](O)[C@H](C)[C@@H](O)[C@H](C)[C@H](O)CC(=O)O[C@H]([C@H](C)[C@H](O)/C=C(C)/C=C/C=C/C=C/C=C/C=C/C[C@H](O)/C(C)=C/CCC(=O)O)C[C@H](O)CCC1 [ETNANGIEN],1 µg/mL,,0.03 µg/mL,0.06 µg/mL,Unstable,> 80 µg/mL,> 80 µg/mL,Stable,Unstable,0.12 µg/mL
COc1ccc(COC[C@@H](C)[C@@H](O)C[C@H]2CCC[C@H](OC)C/C=C\C=C\C[C@H](C)[C@@H](O)[C@H](C)[C@@H](O)[C@H](C)[C@H](O)CC(=O)O2)cc1,> 20 µg/mL,,20 µg/mL,> 20 µg/mL,,> 20 µg/mL,> 20 µg/mL,,,> 20 µg/mL
COc1ccc(COC[C@@H](C)[C@@H]2C[C@H](O)CCC[C@H](OC)C/C=C\C=C\C[C@H](C)[C@@H](O)[C@H](C)[C@@H](O)[C@H](C)[C@H](O)CC(=O)O2)cc1,> 20 µg/mL,,10 µg/mL,> 20 µg/mL,,> 20 µg/mL,> 20 µg/mL,,,20 µg/mL
CO[C@@H]1C/C=C\C=C\C[C@H](C)[C@H]2OC(C)(C)O[C@H]([C@H]2C)[C@H](C)[C@H](O)CC(=O)O[C@H]([C@H](C)[C@H](O)/C=C(C)/C=C/CO)C[C@H](O)CCC1,> 20 µg/mL,,10 µg/mL,> 20 µg/mL,,> 20 µg/mL,> 20 µg/mL,,,20 µg/mL
